Experiment: Chelatability (constant of calcium ion stability) test with calcium ion electrode
Format: physicochemical
Conditions: 25° C., pH 10, 1 mmol/l chelating agent with equivalent 1 mmol/l calcium chloride
Protocol: To 1 mmol/l aqueous solution of this sodium aminopolycarboxylate, an equivalent amount of a 1 mmol/l aqueous solution of calcium chloride was added. Then the constant of calcium ion stability (pKCa^2+) was determined by measuring the calcium ion concentration at pH 10.0 by using a calcium ion electrode.
(1) Formation of Calibration Curve
By using calcium chloride, solutions having calcium concentrations of 0.1 mmol/l, 1.0 mmol/l and 10 mmol/l were prepared and the potential of each solution was measured. Based on the data thus obtained, a calibration curve of the logarithmic calcium ion concentration vs. potential was formed.
(2) Measurement of Constant of Stability
An aqueous solution (100 ml) was prepared by adding a chelating agent (1 mmol/l) and calcium chloride (1 mmol/l) at an equivalent ratio to an aqueous solution containing 0.1 mmol/l of ammonium chloride to achieve a constant ionic strength. After stirring this solution for 10 minutes, the potential of the solution at 25° C. at pH 10 was measured. Based on the calibration curve formed in (1), the calcium ion concentration corresponding to the potential thus measured was determined and the constant of stability was calculated on the assumption that the sample and calcium ion formed a complex at a ratio of 1:1.

- constant of calcium ion stability (pKCa2+): 3.8
Compound: O=C([O-])CC(NCCNC(CC(=O)[O-])C(=O)O)C(=O)[O-].[Na+].[Na+].[Na+] (stereo not shown) [trisodium N,N′-ethylenediaminedisuccinate, reference compound]

Reference: US6900351B2, “Aminopolycarboxylates, process for producing the same and use thereof” (Tosoh Corporation, priority 2000, dated 2005)
